Measurements from patent US8158811B2, “Unsaturated fatty hydroxy acid derivatives and the dermocosmetologic use thereof” (Pierre Fabre Dermo-Cosmetique, priority 2005, dated 2012).

What was measured:
prostaglandin 6KF1α = assay: production of prostaglandin 6KF1α by keratinocytes stimulated with calcium ionophore A23187 (ELISA); format: cell-based; conditions: 3 μg/ml, A23187 1 μm 5 hours
Experimental: A suspension of keratinocytes in DMEM 10% foetal calf serum was divided into 6 well plates (1.2. 106cells/wells) and incubated for 16 hours at 37° C. in a 5% CO2 atmosphere. The keratinocytes were then rinsed with PBS in order to eliminate non adhering cells then exposed to the products to be tested included in DMEM without foetal calf serum (which could interfere with the assay).
The concentration tested in culture was 3 μg/ml. This was retained as the test concentration after a preliminary evaluation test for cytotoxicity (neutral red) and is not cytotoxic.
For each treatment, three wells were tested. Cells were pre-incubated for 60 minutes with the products to be tested then a stimulating agent was added to stimulate the arachidonic acid cascade (calcium ionophore) which was added for 5 hours: calcium ionophore A23187 was used at a concentration of 1 μm.
After 5 hours in culture, the culture medium for each well was recovered, centrifuged at 3000 rpm and stored at −80° C.
The production of prostaglandin 6KF1α for each of the tests was measured using a EUROMEDEX Elisa Kit.
Results are expressed as the percentage activity/stimulated control.

Interleukin 8 = assay: release of Interleukin 8 by keratinocytes NHK stimulated with PMA + calcium ionophore A23187 (ELISA); format: cell-based, human; conditions: 3 μg/ml, keratinocytes, PMA + A23187 6 hours
Experimental: In this study, carried out using 96 well plates, we evaluated the activity of hydroxyl alkine acids on the production of Interleukin 8 produced in the keratinocytes by phorbol ester PMA and calcium ionophore A23187.
A suspension of keratinocytes in supplemented KSFM was divided between 96 well plates (3.10^4 cells/wells) and incubated for 16 hours at 37° C. under an atmosphere of 5% CO2. The keratinocytes were then rinsed with PBS in order to eliminate non adhering cells then exposed to the products to be tested included in non supplemented KSFM (which could interfere with the assay).
The concentration tested in culture was 3 μg/ml. This was retained after a preliminary test to evaluate cytotoxicity (neutral red) and is not cytotoxic.
3 wells were used for each treatment. Cells were preincubated for 60 minutes with the products to be tested then stimulated, in parallel to negative controls without stimulant: Phorbol Myristate Acetate (PMA) 1 μm+Calcium ionophore (A23187) 0.1 μm.
Incubation for 6 hours at 37° C. in a humid air atmosphere containing 5% CO2.
The culture medium for each of the wells was recovered, centrifuged at 3000 rpm and stored at −80° C.
Cytokine assay: IL8 was assayed using the ELISA kit immunoenzyme method (immunotech).
The results are given as percentage activity/stimulated control.
The compounds according to the invention were evaluated in terms of anti-inflammatory activity on the release of Interleukin 8 by human keratinocytes NHK stimulated by phorbol ester PMA+calcium ionophore A23187.

[1] = test system: intracellular AOSs, fibroblast line L929; assay: in vitro assay of intracellular AOSs (H2DCF-DA probe) after H2O2/iron oxidative stress; format: cell-based, murin; conditions: pre-incubation 3 h, L929
Description: We set up an in vitro study model of oxidative stress induced by H2O2/iron as H2O2 generates huge amounts of intracellular AOSs as a result of a chain reaction triggered by oxidation of membrane lipids.
This technique is based on the use of a fluorescent probe, 6-carboxy-2′,7′-dichlorodihydro fluorescein diacetate, di (acetoxymethyl ester) (H2DCF-DA) which once it penetrates into the cell is deacetylated by intracellular esterases and thus forms H2DCF. This product is oxidized by intracellular AOSs into a highly fluorescent compound: 2′,7′-dichlorofluorescein (DCF) (Suematsu M et al., 1996, Free Radicals Practical Approach, Punchard ed. P 83-99).
The materials and methods used for in vitro assay of intracellular AOSs are given below. • a) Cell tool • Cutaneous murin fibroblast cell line L929. • b) Materials • 96 well flat based microplate. • Cytofluor II cytofluorameter: Ref. PERCEPTIVE BIOSYSTEMS. • c) Reagents • Cell culture reagents: • Dulbecco's Modified Eagle Medium as the culture medium (DMEM) • Foetal calf serum • Phosphate buffer PBS pH 7.4 • Trypsin EDTA (1X) Fluorescent probe • 6-carboxy-2′,7′-dichlorodihydrofluorescein diacetate, di(acetoxymethyl ester) (PM.675,43) Cell stimulation products • Hydrogen peroxide (H2O2) 3% Ref. GIFRER (Gifrer Barbezat Laboratory) • Ferrous ammonium sulphate (Fe^2+) • Ferric ammonium sulphate (Fe^3+) • d) Products tested:
For the evaluation of unsaturated fatty hydroxy acid derivatives, the dilutions are prepared in freshly prepared culture medium for a concentration range of 0.02, 0.2, 2 and 20 ng/ml. • e) Protocol. Cell culturing.
Cells from the fibroblast line L929 were cultured in 96-well flat base microplates in 100 μl of DMEM supplemented with 10% foetal calf serum. These were incubated overnight at 37° C. in a humid atmosphere at 5% CO2. The blank plate without cells was evaluated using 6 wells.
Dilutions of the products to be tested and reference molecule were made up in culture medium without foetal calf serum then deposited in 7 wells at a rate of 100 μl per well.
Cells were then incubated for 3 hours at 37° C. in a humid atmosphere at 5% CO2.
Cells were rinsed in PBS 1X at a rate of 100 μl per well. They were then incubated for 30 minutes at 37° C. in a humid atmosphere at 5% CO2 with 50 μl of the H2DCF-DA probe at 5 μM.
After 30 minutes of contact with the probe alone, cells were incubated for 30 minutes at 37° C. in a humid atmosphere at 5% CO2 with the addition of 25 μl of H2O2 at 800 μM and 25 μl of ferrous iron and ferric iron solution at 8 mM in order to obtain final concentrations of 200 μM of H2O2 and 2 mM of ferrous iron and ferric iron.
Cells were then rinsed with PBS 1X at a rate of 100 μl per well then incubated for 30 minutes at 37° C. in a humid atmosphere at 5% CO2 with 100 μl of PBS 1X.
This incubation for 1 h 30 minutes at 37° C. allows intracellular esterases to deacetylate the probe into H2DCF which can be oxidized by the intracellular AOSs into DCF: a fluorescent compound whose formation is proportional to the quantity of intracellular AOSs.
The intensity of fluorescence is read on a cytofluorimeter at λexcitation=485 nm and λemission=530 nm. This reflects the amount of intracellular AOS produced.
The ratio below makes it possible to calculate the % protection against the production of intracellular AOSs for each product concentration tested (because the intensity of fluorescence or IF reflects the release of intracellular AOSs)
• Pre-incubation: 3 h • Number of tests=3 for all compounds. • Number of tests=18 for vit. E

[2] = test system: membrane lipids, fibroblast line L929; assay: TBARS test, lipid peroxidation after H2O2/Fe2+/Fe3+; format: cell-based, murin; conditions: 0.02 ng/ml, pretreated 16 hours
Description: In order to evaluate membrane changes, we measured lipid peroxidation by in vitro assay of complexes between the products of lipid oxidation and thiobarbituric acid. These complexes are called TBARS (thiobarbituric acid reactive substances) and give the test its name: TBARS Test.
In order to mimic chemical oxidative stress, we treated a fibroblast line (L929) with a complex consisting of hydrogen peroxide (H2O2) and iron (Fe^2+/Fe^3+) thus reconstituting the Fenton reaction which is the source of oxygenated free radicals and particularly the hydroxyl radical (OH°) (D. A Vessey et al. 1992): H2O2+Fe^2+→OH°+OH^−+Fe^3+
The products were evaluated on a murin fibroblast line L929. Cells were pretreated with different concentrations of the product for 16 hours and were then stimulated with the H2O2/Fe^2+/Fe^3+ complex (200 μM−1 mM) for 1 hour. • Stock solutions: 100 mg/ml ethanol, 4° C. • Final solutions: 0.02 ng/ml.
Peroxidation of membrane lipids was analysed by measuring TBARS (Protocol ref. PLN°2, according to Morliere et al, 1991).
[…]. TBARS assays are therefore expressed in pmole/μg of protein. Proteins and TBARS are assayed in the intracellular medium.
Using the TBARS calculation in pmole/μg protein, we calculated the protective efficacy of various products against the oxidation of lipid membranes.
Four separate experiments were carried out. Several compounds were evaluated in the course of these experiments (the test only allows 10 molecules to be evaluated at one time). The compounds were evaluated several times and were chosen as a function of the results obtained in another test which also measured anti-radical activity (assay test for activated oxygen species).
The model used in this experiment (Fenton reaction) triggers considerable lipid peroxidation of the L929 fibroblasts. This massive release of the hydroxyl radical OH° thus generates oxidative stress in the cells, particularly in the membranes. However, in this type of oxidative reaction, the products resulting from lipid peroxidation are internalized in the cells and TBARS are therefore assayed in the intracellular medium.

transglutaminase 1 (TG1) = assay: keratinocyte differentiation, real-time RT-PCR of transglutaminase 1 transcripts; format: cell-based, human; conditions: NHK, 48 hours
Experimental: (§1) Normal human keratinocytes (NHK) proliferate and differentiate in vitro, forming stratified layers which mimic the basal organisation of the skin. Extracellular calcium concentrations in excess of 0.1 mM initiate a cascade of genome and non-genome events which take the keratinocytes from a proliferative phase towards a differentiation phase. Keratinocyte differentiation can then be evaluated by studying the expression of several markers such as keratins 1 and 10, transglutaminase 1, desaturase DES2, involucrine, FATP4 and ABCG1 transporters. We therefore evaluated the effect of certain hydroxyalcene carboxylic acids in an in vitro culture model.
(§2) Normal human keratinocytes are isolated from skin explants. They are cultured in KSFM medium (Gibco) with a low calcium content (0.1 mM) containing 25 μg/ml of BPE (bovine pituitary extract) and […] of EGF (epithelium growth factor). 24 hours after culturing, differentiation is triggered by the addition of calcium (final concentration 1.2 mM). The active ingredients are added or not at the same time as calcium at concentrations of 100 and 1 μg/ml in order to determine whether or not they have a potentialising effect on differentiation. Cells were then analysed 48 hours after the addition of calcium and these products.
(§3) Total RNA was extracted under cold conditions from keratinocytes.
(§4) After reverse transcription of mRNA into cDNA, PCRs were made up in 96 well plates (iCycler quantitative PCR apparatus, BioRad). Expression of transcripts of transglutaminase, desaturase (DES2), ABCG1 and FATP4 were standardized with respect to the expression of reference genes (GAPDH, UBC, HPRT).

desaturase DES2 = assay: keratinocyte differentiation, real-time RT-PCR of DES2 transcripts; format: cell-based, human; conditions: NHK, 48 hours
Experimental: as §1, §2, §3, §4

ABCG1 = assay: keratinocyte differentiation, real-time RT-PCR of ABCG1 transcripts; format: cell-based, human; conditions: NHK, 48 hours
Experimental: as §1, §2, §3, §4

FATP4 = assay: keratinocyte differentiation, real-time RT-PCR of FATP4 transcripts; format: cell-based, human; conditions: NHK, 48 hours
Experimental: as §1, §2, §3, §4

[3] = Mus musculus, 0.2 ng/ml, read-out: Percentage inhibition of the intracellular production of AOS

| Compound | % inhibiting activity of evaluated molecules on the production of PG6KF1α Inflammation (prostaglandin 6KF1α) [%] | % inhibition of IL-8 release (Interleukin 8) | inhibition at 20 pg/mL ([1]; Mus musculus, 0.02 ng/ml, read-out: Percentage inhibition of the intracellular production of AOS) [%] | inhibition at 0.0002 µg/mL [1, 3] [%] | inhibition at 0.002 µg/mL ([1]; Mus musculus, 2 ng/ml, read-out: Percentage inhibition of the intracellular production of AOS) [%] | inhibition at 0.02 µg/mL ([1]; Mus musculus, 20 ng/ml, read-out: Percentage inhibition of the intracellular production of AOS) [%] | % membrane lipid protection, Mean [2] [%] | Induction Factor vs Control (CaCl2 1.2 mM) TG1 (transglutaminase 1 (TG1); 1 μg/ml) | Induction Factor vs Control (CaCl2 1.2 mM) TG1 (transglutaminase 1 (TG1); 100 μg/ml) | Induction Factor vs Control (CaCl2 1.2 mM) DES2 (desaturase DES2; 1 μg/ml) | Induction Factor vs Control (CaCl2 1.2 mM) DES2 (desaturase DES2; 100 μg/ml) | Induction Factor vs Control (CaCl2 1.2 mM) ABCG1 (ABCG1; 1 μg/ml) | Induction Factor vs Control (CaCl2 1.2 mM) ABCG1 (ABCG1; 100 μg/ml) | Induction Factor vs Control (CaCl2 1.2 mM) FATP4 (FATP4; 1 μg/ml) | Induction Factor vs Control (CaCl2 1.2 mM) FATP4 (FATP4; 100 μg/ml) | Percentage inhibition of the intracellular production of AOS ([1]; 0.02 ng/ml) [%] | Percentage inhibition of the intracellular production of AOS ([1]; 0.2 ng/ml) [%] | Percentage inhibition of the intracellular production of AOS ([1]; 2 ng/ml) [%] | Percentage inhibition of the intracellular production of AOS ([1]; 20 ng/ml) [%] |
| --- | --- | --- | --- | --- | --- | --- | --- | --- | --- | --- | --- | --- | --- | --- | --- | --- | --- | --- | --- |
| O=C(O)C(F)=CCCCCCCCCCO [n=8, R=H, Rn=H, R1=F, 12-hydroxy-dodeca-2-fluoro-2-enoic acid] | 44 | Non-active |  |  |  |  |  |  |  |  |  |  |  |  |  |  |  |  |  |
| O=C(O)C(F)=CCCCCCCCO [n=6, R=H, Rn=H, R1=F, 10-hydroxy-dec-2-fluoro-2 enoic acid] |  |  | 15 | 4 | 5 | -9 | 40.65 | 1.2 | 7.8 | 1.3 | 10.3 | 1.3 | 6.3 | 1.0 | 1.9 |  |  |  |  |
| O=C(O)/C=C/CCCCCCCO [n=6, R=H, Rn=H, R1=H, DHA] |  |  |  | 33 |  |  | 52.91 | 1.1 | 12.3 | 1.7 | 11.5 | 1.9 | 6.6 | 1.2 | 2.5 |  |  |  |  |
| O=C(O)C(F)=CCCCCO (mixture of isomers) [n=3, R=H, Rn=H, R1=F] |  |  |  |  |  |  | 38.14 | 1.5 | 0.9 | 1.7 | 1.9 | 1.5 | 1.2 | 1.2 | 1.2 | 3 | −3 | −32 | −51 |
